In patent publication US20050281764A1, “Use of EGF-R protein tyrosine kinase inhibitors for preventing photoaging in human skin” (priority 2000, published 2005):

Columns and labels:
[1] = test system: IRAK (IL-1 Receptor-Activated Kinase); assay: IRAK phosphorylation/activity in cells in culture; assay type: cell-based
Source text: IRAK (IL-1 Receptor-Activated Kinase) is a protein […] kinase (enzyme) that binds to and is activated by IL-1R (the IL-1 receptor) and in turn activates a pathway that leads to induction of c-JUN kinase, MMPs, and thus collagen degradation.

[2] = test system: c-JUN kinase; assay: c-JUN kinase activity (phosphorylation of GST-c-jun) in cultured human keratinocytes after UV; assay type: cell-based
[3] = test system: cJUN protein; assay: cJUN protein induced by UV radiation in skin of human volunteers (FIG. 3); assay type: in vivo; settings: 5% genistein in DMSO, topical, occluded 24 hours; 2 MEDs UV; biopsy 8 hours after exposure; vs vehicle-treated skin
Procedure: The same procedure as described above was repeated, except that biopsy for cJUN protein was taken 8 hours after exposure to the UV radiation. […] The inset in the figure is a Western blot showing the amount of cJUN protein in genistein-treated versus vehicle-treated skin.

[4] = test system: JNK; assay: JNK activation in UV-irradiated skin of human volunteers (FIG. 2); settings: occluded 24 hours
Procedure: Human volunteers, each having given informed consent, were used to determine the effect, if any, of pretreatment of their skin with an EGF-R PTK inhibitor prior to exposure of the skin to UV radiation. […] On the hip or buttock skin of volunteers, the test solution was placed (or on adjacent areas if both solutions were used), and the areas occluded for 24 hours; thereafter, the area was biopsied, or it was exposed to 2 MEDs of UV radiation and biopsied after exposure.
After the volunteers' skin was occuled for 24 hours, it was biopsied, and other areas were exposed to 2 MEDs of UV radiation and then biopsied about 4 hours thereafter.

[5] = test system: MMP-1 mRNA; assay: MMP-1 mRNA induced by UV radiation in skin of human volunteers (FIG. 4); assay type: in vivo; settings: 5% genistein in DMSO, topical, occluded 24 hours; 2 MEDs UV; biopsy 24 hours after exposure; vs vehicle-treated skin
Procedure: The same procedure as described above was repeated, except that biopsy for MMP-1 mRNA was taken 24 hours after exposure to the UV radiation.

SMILES | phosphorylated IRAK ([1]; PD 153035-treated cells exposed to IL-1) | IRAK activity ([1]; cells in culture treated with PD 153035 alone, no challenge) | phosphorylated IRAK ([1]; cells treated with PD 153035 and then challenged with UV or EGF) | phospho-GST-c-jun protein ([2]; cultured human keratinocytes not exposed to UV) | phospho-GST-c-jun protein levels ([2]; cultured human keratinocytes pretreated, then exposed to UV radiation) | increase in the amount of cJUN protein after UV exposure [3] | skin penetration of the topical solution ([4]; 5% genistein in DMSO on human hip or buttock skin, inferred from the JNK results) | JNK activation ([4]; 5% genistein in DMSO, topical, 2 MEDs UV, biopsy about 4 hours after exposure) | increase in MMP-1 mRNA induced by UV [5]
COc1cc2ncnc(Nc3cccc(Br)c3)c2cc1OC [PD 153035] | no reduction in phosphorylated IRAK | minimal baseline amount of IRAK activity | clearly had less phosphorylated IRAK | baseline amount of phospho-GST-c-jun protein | comparable with the baseline levels |  |  |  | 
O=c1c(-c2ccc(O)cc2)coc2cc(O)cc(O)c12 [genistein, 4′,5,7-trihydroxyisoflavone] |  |  |  |  |  | significantly inhibited | able to penetrate the skin | significantly reduced the amount of JNK activated | significantly inhibited
